Laboratory results as given in patent US20250381412A1, “METHODS AND SYSTEMS FOR NEUROMODULATION” (Cardionomix, Inc., priority 2022, published 2025).

System: normal, non-HF ovine model
Experiment: Heartbeat-by-heartbeat changes in right and left ventricle contractility (max dP/dt as surrogate) after an injection
Assay type: in vivo
Details: pressure max (dP/dt) used as surrogate for contractility, after injection (calcium: 5 mL)
Description: The correlation was a heartbeat-by-heartbeat analysis. Pressure measurements, taken by a Millar catheter comprising a MEMS pressure sensor, in units of max (dP/dt) was used as a surrogate for contractility.
The first change, a dobutamine injection, provided a very high contractility increase greater than 500%. The average correlation between right ventricle contractility and left ventricle contractility was very good at 0.91, where 1.00 is a perfect correlation. Accordingly, if a subject is given a dobutamine injection, measuring changes to right ventricle contractility can provide accurate information about changes to left ventricle contractility. The first change was repeated three times.
The second change, calcium injection at 5 mL, provided a contractility increase of about 20%. […] The average correlation between right […] contractility and left ventricle contractility using a Millar (MEMS) sensor on a catheter was very good at 0.91. The average correlation between right ventricle contractility and left ventricle contractility using a fluid-filled lumen of a Swan-Ganz catheter in communication with an external pressure sensor was also very good at 0.87. Accordingly, under certain circumstances such as measurement of an animal (normal, non-HF ovine model) model, if a subject is given a calcium injection, measuring changes to right ventricle contractility with a MEMS sensor or a fluid filled lumen can provide accurate information about changes to left ventricle contractility.

## [Ca+2] [Calcium, calcium]
  Contractility % Increase: ~20%
Listed as calcium
  Contractility % Increase: about 20%

## CC(CCc1ccc(O)cc1)NCCc1ccc(O)c(O)c1 (stereo not shown) [Dobutamine Injection, dobutamine]
  Contractility % Increase: >500%
Listed as dobutamine
  Contractility % Increase: greater than 500%
